For one experiment, the system named is monocistronic NK5.1 HCV replicon in Huh7 cells. Kind of experiment: HCV replicon assay, monocistronic replicon cell line. In kind it is cell-based, hepatitis C virus. To be noted: Hepatitis C virus, Huh-7, 72 h; Table 1; monocistronic replicon in Huh7 cells, 3 days incubation, HCV RNA/GAPDH RNA by TaqMan RT-PCR; read-out: Mono EC50 Median. The gist of the method:
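EC50 derives from the HCV RNA/GAPDH RNA ratio by one-step TaqMan RT-PCR, relative to DMSO-only wells. Compounds (six half-log concentrations, 0.6% DMSO) were incubated 3 days at 37 °C with NK5.1 monocistronic replicon Huh7 cells plated a day earlier.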
Background: Replicon systems follow genome replication, usually without infectious particles.
For the compound `CCOC(=O)c1cc(-c2ccc(OC)cc2)n(-c2ncccc2C(F)(F)F)n1` [Compound 57, 5-(4-Methoxy-phenyl)-1-(3-trifluoromethyl-pyridin-2-yl)-1H-pyrazole-3-carboxylic acid ethyl ester], the EC50 is above 32 µM.

`Oc1ccc2ccccc2c1-c1nc(-c2ccc(C(F)(F)F)cn2)no1` [Compound 221, 1-[3-(5-Trifluoromethyl-pyridin-2-yl)-[1,2,4]oxadiazol-5-yl]-naphthalen-2-ol]: the half-maximal effective concentration (EC50) was determined as 4.8 µM.

`COc1ccc(-c2ccn(-c3ncccc3C)n2)c(O)c1OC` [Compound 119, 2,3-Dimethoxy-6-[1-(3-methyl-pyridin-2-yl)-1 H-pyrazol-3-yl]-phenol]: the EC50 came to 11.8 µM.

On to `COc1ccc(-c2nc(-c3ncccc3[N+](=O)[O-])no2)c(O)c1` [Compound 170, 5-Methoxy-2-[3-(3-nitro-pyridin-2-yl)-[1,2,4]oxadiazol-5-yl]-phenol], for which the EC50 was 12 µM.

Consider `O=[N+]([O-])c1cccc(-c2nc(-c3ccc(C(F)(F)F)cn3)no2)c1` [Compound 215, 2-[5-(3-Nitro-phenyl)-[11,2,4]oxadiazol-3-yl]-5-trifluoromethyl-pyridine], for which the EC50 was 31 µM.

For `COc1ccc(-c2nc(-c3ccc(C(F)(F)F)cn3)no2)c(O)c1` [Compound 222, 5-Methoxy-2-[3-(5-trifluoromethyl-pyridin-2-yl)-[1,2,4]oxadiazol-5-yl]-phenol], the EC50 is above 32 µM.

As for `FC(F)(F)c1cccnc1-c1noc(-c2cccc3ccccc23)n1` [Compound 153, 2-(5-Naphthalen-1-yl-[1,2,4]oxadiazol-3-yl)-3-trifluoromethyl-pyridine], the concentration giving a half-maximal response (EC50) stood at 7.9 µM.

The experiment is the same for the next values; noted with them: Hepatitis C virus, Huh-7, 72 h; table T3 (compounds 471-640); monocistronic replicon in Huh7 cells, 3 days incubation, HCV RNA/GAPDH RNA by TaqMan RT-PCR; read-out: Mono EC50 Median.
As for `Oc1ccc2ccccc2c1-c1nc(-c2ncccn2)n[nH]1` [Compound 573, 1-(5-pyrimidin-2-yl-2H-[1,2,4]triazol-3-yl)-naphthalen-2-ol], the EC50 was determined as 3.5 µM.

In the case of `COc1cccc(-c2nc(-c3ccccn3)nn2C)c1O` [Compound 603, 6-Methoxy-2-(2-methyl-5-pyridin-2-yl-2H-[1,2,4]triazol-3-yl)-phenol], the concentration giving a half-maximal response (EC50) was above 32 µM.

For the compound `O=[N+]([O-])c1ccc(O)c(-c2nc(-c3ncccc3Br)n[nH]2)c1` [Compound 485, 2-[5-(3-Bromo-pyridin-2-yl)-2H-[1,2,4]triazol-3-yl]-4-Nitro-phenol], the EC50 was above 19 µM.

The same experiment, now with this note: Hepatitis C virus, Huh-7; monocistronic NK5.1 HCV replicon in Huh7 cells; median value; read-out: Mono EC50 Median.
As for `COc1ccc(O)c(-c2noc(-c3ncccc3C)n2)c1` [Compound 301, 4-Methoxy-2-[5-(3-methyl-pyridin-2-yl)-[1,2,4]oxadiazol-3-yl]-phenol], the EC50 is above 32 µM.

On to `Brc1cccc(-c2nc(-c3nccc4ccccc34)n[nH]2)c1` [Compound 438], for which the concentration giving a half-maximal response (EC50) is above 19 µM.

Regarding `Oc1ccc(Br)cc1-c1nc(-c2ncccc2C(F)(F)F)no1` [Compound 292, 4-Bromo-2-[3-(3-trifluoromethyl-pyridin-2-yl)-[1,2,4]oxadiazol-5-yl]-phenol], the EC50 was determined as 1.5 µM.

Turning to `Oc1ccc2ccccc2c1-c1nc(-c2ccc(C(F)(F)F)cn2)no1` [Compound 221, 1-[3-(5-Trifluoromethyl-pyridin-2-yl)-[1,2,4]oxadiazol-5-yl]-naphthalen-2-ol], the half-maximal effective concentration (EC50) came out at 4.8 µM.

For the compound `Fc1cc(-c2nc(-c3ccccn3)n[nH]2)ccc1-c1ccccc1` [Compound 357, 2-[5-(2-Fluoro-biphenyl-4-yl)-1H-[1,2,4]triazol-3-yl]-pyridine], the concentration for a half-maximal effect (EC50) was 7.1 µM.

Consider `Cc1ccccc1-c1nnc(-c2ccccn2)o1` [Compound 339, 2-(5-o-Tolyl-[1,3,4]oxadiazol-2-yl)-pyridine], for which the EC50 was above 32 µM.

Consider `O=[N+]([O-])c1cccc(-c2nc(-c3ccc(C(F)(F)F)cn3)no2)c1` [Compound 215, 2-[5-(3-Nitro-phenyl)-[11,2,4]oxadiazol-3-yl]-5-trifluoromethyl-pyridine], for which the EC50 turned out to be 31 µM.

Turning to `COc1ccc(-c2nc(-c3ccc(C(F)(F)F)cn3)no2)c(O)c1` [Compound 222, 5-Methoxy-2-[3-(5-trifluoromethyl-pyridin-2-yl)-[1,2,4]oxadiazol-5-yl]-phenol], the EC50 is above 32 µM.

`COc1cccc(-c2nc(-c3nccc4ccccc34)n[nH]2)c1O` [Compound 378, 6-Methoxy-2-(5-isoquinolin-1-yl-2H-[1,2,4]triazol-3-yl)-phenol]: the 50% effective concentration (EC50) turned out to be 16 µM.

Consider `Oc1ccc2ccccc2c1-c1nc(-c2nccc3ccccc23)n[nH]1` [Compound 385, 1-(5-isoquinolin-1-yl-2H-[1,2,4]triazol-3-yl)-naphthalen-2-ol], for which the EC50 is above 19 µM.

Take `Cc1cccnc1-c1n[nH]c(-c2cccc([N+](=O)[O-])c2)n1` [Compound 454, 3-Methyl-2-[5-(3-nitro-phenyl)-1H-[1,2,4]triazol-3-yl]-pyridine]: the EC50 worked out at 24 µM.

Usually EC50 stands for the concentration needed to bring the measured effect to its halfway point.

These data come from US20050075375A1 (priority 2003, published 2005).
